Data set [1] addresses T1, CYP1A2 (Homo sapiens, UniProt P05177).
T1 sequence (P05177 1-516): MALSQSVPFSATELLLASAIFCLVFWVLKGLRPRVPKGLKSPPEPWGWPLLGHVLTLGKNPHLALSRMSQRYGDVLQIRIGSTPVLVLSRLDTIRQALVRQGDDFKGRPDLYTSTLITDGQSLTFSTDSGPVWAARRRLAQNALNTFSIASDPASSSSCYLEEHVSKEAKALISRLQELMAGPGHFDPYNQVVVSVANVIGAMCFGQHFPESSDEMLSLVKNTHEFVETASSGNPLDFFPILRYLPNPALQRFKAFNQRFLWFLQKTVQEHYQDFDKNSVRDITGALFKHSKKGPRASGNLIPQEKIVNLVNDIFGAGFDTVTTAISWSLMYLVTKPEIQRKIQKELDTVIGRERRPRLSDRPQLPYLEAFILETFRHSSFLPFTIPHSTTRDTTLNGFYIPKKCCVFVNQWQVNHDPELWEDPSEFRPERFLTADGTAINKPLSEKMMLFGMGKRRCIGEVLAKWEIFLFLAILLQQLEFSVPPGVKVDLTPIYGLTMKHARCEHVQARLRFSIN
Description: CYP inhibition in human liver microsomes, phenacetin O-deethylation (PCOD). Particulars: pH 7.4, probe phenacetin (O-deethylation, PCOD). The data set is classed as in vitro ADME. The source says: (§1) The DAD was set at 280 nm.

Data set [2] concerns various cancer cell lines. The following applies: cited from earlier work.
Data set [3] has as its target T2, CYP2C9 (Homo sapiens, UniProt P11712). The data set is described as follows: in vitro. The following applies: human liver microsomes, pH 7.4, probe diclofenac (4′-hydroxylation, DCHY), 200 µM. (In general: Microsomes from liver hold many membrane-bound enzymes, among them those of drug oxidation.)
Description: (§3) The formation of a metabolite from a CYP isozyme-specific phenotyping reaction (Table 4) was monitored. Each substrate (200 μM), along with SKN (10 μM), was incubated with human liver microsomes (0.5 mg/mL) and an NADPH-generating system in 0.1 M potassium phosphate buffer (pH 7.4) at 37 °C for 60 min in a total volume of 200 μL in a shaking water bath. The metabolic reaction was initiated by adding NADP^+ (1 mM) and stopped by adding 10 μL of trichloroacetic acid. In some experiments, the microsomes were pre-incubated with SKN for 15 min prior to the addition of the cofactor, in order to determine the time-dependent inhibitory effect. […] In contrast, co-incubation refers to experiments in which microsomes and cofactors were incubated in the presence of SKN. After centrifugation of incubation samples at 12,000× g for 15 min at 4 °C, the supernatant (20 μL) was injected into an HPLC-DAD system to analyze the metabolites formation (Supplementary Materials).
(§4) The DAD was set at 248 nm for phenacetin O-deethylation (PCOD), 298 nm for bupropion hydroxylation (BPHY), 276 nm for diclofenac 4′-hydroxylation (DCHY), 230 nm for tolbutamide 6-hydroxylation (TOLHY), 280 nm for dextromethorphan O-demethylation (DEXOD), and 250 nm for testosterone 6β-hydroxylation (TSTHY) and testosterone β-D-glucuronidation (TSTG).
Data set [4] can be described thus: NADPH-dependent phase I metabolic stability in human liver microsomes. The data set is classed as in vitro ADME. The protocol: (§2) Metabolic stability was measured by monitoring the amount of parent compound that remained in an incubation mixture at designated incubation time points. For the phase I metabolism study, SKN (100 μM) was incubated with liver microsomes (1 mg/mL, rat, mouse, and dog; and 0.5 mg/mL, human), and an NADPH-generation cocktail consisting of nicotinamide adenine dinucleotide phosphate (NADP^+, 1 mM), glucose-6-phosphate (5 mM), glucose-6-phosphate dehydrogenase (1 unit/mL), and MgCl2 (10 mM) in potassium phosphate buffer (0.1 M, pH 7.4) in a total volume of 1 mL. To study phase II glucuronide conjugative metabolism, uridine 5′-diphosphoglucuronic acid (UDPGA) (2 mM) was added as a cofactor. The mixture was incubated in a shaking water bath, and the enzyme reaction was initiated by the addition of NADP^+, UDPGA, or both. Aliquots (100 μL) were removed at 0, 5, 15, 30, 45, and 60 min, and the reaction was terminated by adding two volumes of ice-cold methanol. […] The half-life of SKN was obtained by plotting the remaining amount of SKN against time using Prism 3.0 software (GraphPad, La Jolla, CA, USA). Hepatic intrinsic clearance (CLint, hepatic) was calculated using the following formula [20]:CLint, hepatic = (0.693/t1/2) × (g liver weight/kg body weight) × (mL incubation/mg of microsomal protein) × (mg microsomal protein concentration/g of liver)
as §1

Data set [5] is described as follows: NADPH-dependent phase I metabolic stability in mouse liver microsomes. The data set is classed as in vitro ADME. The protocol: as §2, §1
Data set [6] in a line: UDPGA-dependent metabolic stability in human liver microsomes. Type of data set: in vitro ADME. The following applies: for half-life at 100 µM / CLint scaled at 100 µM: human, pH 7.4, human liver microsomes; for CLint scaled at 100 µM: read-out: CLint, hepatic. Here is the method: as §2, §1
Data set [7] in a line: UDPGA-dependent metabolic stability in rat liver microsomes. The data set is classed as in vitro ADME. Particulars: for CLint scaled at 100 µM: read-out: CLint, hepatic; for half-life at 100 µM: rat, pH 7.4, rat liver microsomes. Here is the method: as §2, §1
The nature of data set [8]: UDPGA-dependent metabolic stability in dog liver microsomes. Type of data set: in vitro ADME. Particulars: for Amount Remaining at 30 min (%): dog liver microsomes; for half-life at 100 µM / CLint scaled at 100 µM: dog, liver microsomes, pH 7.4, dog liver microsomes; for CLint scaled at 100 µM: read-out: CLint, hepatic. The protocol: as §2, §1
Data set [9] concerns hCAR-mediated CYP2B6 promoter. Description: CAR-mediated CYP2B6 promoter luciferase assay in HepG2 cells. Particulars: pcDNA3-CAR-transfected HepG2 cells, 24 h; CITCO 500 nM. The data set is classed as cell-based, human. Here is the method: HepG2 cells (American Tissue Culture Collection, Manassas, VA, USA) were maintained in Dulbecco’s modified Eagle’s essential medium (DMEM), containing 10% fetal bovine serum, 1% nonessential amino acids, 1% GlutaMAX®, and 1% antibiotics/antimycotics at 37 °C in a 5% CO2 atmosphere. The expression plasmid encoding the human constitutive androstane receptor (hCAR; pcDNA3-CAR) and the pGL3-CYP2B6 luciferase construct were kindly provided by Dr. Hongbing Wang (University of Maryland, College Park, MD, USA). The plasmid encoding the human pregnane X receptor (hPXR; pcDNA3-PXR) and the pGL3-CYP3A4 luciferase construct were obtained from Dr. Masahiko Negishi at the National Institutes of Health (Bethesda, MD, USA). Cells were seeded at a density of 1.5 × 10^5 cells/well into a 24-well plate. The next day, the cells were transfected with 0.25 μg of either pcDNA3-CAR or pcDNA3-PXR and 0.25 μg of a promoter luciferase plasmid (either pGL3-CYP2B6 or pGL3-CYP3A4) using Lipofectamine 2000 (Invitrogen, Carlsbad, CA, USA) according to the manufacturer’s instructions. […] The cells were harvested and luciferase activity was measured as described previously.

The subject of data set [10] is CYP isozymes (all isozyme-specific reactions). Description: CYP inhibition in human liver microsomes, all isozyme-specific reactions. Type of data set: in vitro ADME. The following applies: pH 7.4, SKN 10 μM, read-out: inhibitory effect on the formation of any CYP isozyme-specific metabolites.
Excerpt: as §1

The target in data set [11] is T2, CYP2C9. Description: CYP inhibition in human liver microsomes, diclofenac 4′-hydroxylation (DCHY). The following applies: CYP2C9, DCHY, SKN 10 μM, 15 min pre-incubation.
Description: as §3, §4

Each structure is given as a SMILES string. Read-outs that look alike come from different tables or passages of the source. Where only a bound is given, the exact number is not on record here.

T2 sequence (P11712 whole entry): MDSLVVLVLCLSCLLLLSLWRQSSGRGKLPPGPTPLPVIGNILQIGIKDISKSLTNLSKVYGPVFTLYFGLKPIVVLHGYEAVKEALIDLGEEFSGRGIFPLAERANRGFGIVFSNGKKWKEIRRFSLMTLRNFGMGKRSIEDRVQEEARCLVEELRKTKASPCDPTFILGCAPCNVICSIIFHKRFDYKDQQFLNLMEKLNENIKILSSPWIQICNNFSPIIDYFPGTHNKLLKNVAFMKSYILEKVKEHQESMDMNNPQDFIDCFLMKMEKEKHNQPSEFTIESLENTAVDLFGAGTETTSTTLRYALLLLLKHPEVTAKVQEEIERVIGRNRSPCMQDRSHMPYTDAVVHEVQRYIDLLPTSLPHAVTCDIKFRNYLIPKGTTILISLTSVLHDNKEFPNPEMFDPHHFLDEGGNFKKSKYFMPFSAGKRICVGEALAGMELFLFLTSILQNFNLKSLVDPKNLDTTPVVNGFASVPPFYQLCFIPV

`O=C1C[C@@H](c2ccc(O)c(O)c2)Oc2cc(O)cc(O)c21` [Eriodictyol, 3′-hydroxynaringenin]: the inhibition at 60 min, 10 µM was 15.9 ± 1.8% in [1] (human liver microsomes, 200 µM, inhibitor 10 M [sic], human liver microsomes 0.5 mg/mL, read-out: Inhibition (%)) and 1 ± 0.7% in data set [3]. Also, in data set [2], the “anti-proliferative activity compared to naringenin” value is reported as “two-fold higher”.
In the case of `COc1cc(O)c2c(c1)OC(c1ccc(O)cc1)CC2=O` (racemic) [SKN, (+/−) 7-O-methylnaringenin], the “Amount Remaining at 30 min (%)” value in data set [4] (human liver microsomes 0.5 mg/mL, SKN 100 μM) was determined as 65.5%; in [5] (mouse liver microsomes 1 mg/mL, SKN 100 μM), 4.90%; in data set [6] (NADPH +) it was 54.9%; in data set [6] (NADPH −), 71.3%; in [7] (NADPH +), 0.0%; in [7] (NADPH −), 17.1%. Further, the “Amount Remaining at 30 min (%)” value in data set [8] (NADPH +) is given as 0.0%; in data set [8] (NADPH −), 42.4%. The “amount of SKN remaining after 60 min of incubation” value in data set [4] (human liver microsomes, 60 min) is listed as “greater than 50%”; in data set [5] (mouse liver microsomes, 60 min), 4.9%. The half-life – broadly, the time in which the quantity being followed falls by half – at 100 µM in data set [4] (pH 7.4, human liver microsomes) was more than 60 min; in data set [5] (pH 7.4, mouse liver microsomes) it was 5.4 min; in [6] (NADPH +) it was 25 min; in [6] (NADPH −), more than 30 min; in data set [7] (NADPH +), 2.2 min; in [7] (NADPH −) it was 4.4 min. The half-life at 100 µM turned out to be 5.8 min in [8] (NADPH +) and 24.2 min in [8] (NADPH −). Also, the CLint scaled at 100 µM is less than 20.8 mL/min/kg in data set [4] (pH 7.4, human liver microsomes, read-out: CLint, hepatic); 565 mL/min/kg in data set [5] (pH 7.4, mouse liver microsomes, read-out: CLint, hepatic); 49.9 mL/min/kg in data set [6] (NADPH +); less than 41.6 mL/min/kg in data set [6] (NADPH −); 557 mL/min/kg in data set [7] (pH 7.4, NADPH +); 287 mL/min/kg in [7] (pH 7.4, NADPH −). The CLint scaled at 100 µM in [8] (NADPH +) was found to be 300 mL/min/kg; in data set [8] (NADPH −) it was 71.4 mL/min/kg. Moreover, the inhibition at 60 min, 10 µM in data set [1] (liver microsomes, 200 μM, SKN 10 μM, 15 min pre-incubation, read-out: % Inhibition in Pre-Incubation) was 1.5 ± 2.1%; in [1] (liver microsomes, 200 μM, SKN 10 μM, human liver microsomes, read-out: % Inhibition in Co-Incubation), 0.4 ± 0.5%; in data set [10], not above 20%. Also, the “CYP2B6 luciferase activity increase” value in [9] is “not affected”. Moreover, the “% Inhibition in Pre-Incubation” value in [11] is recorded as 8.7 ± 1.4%.
In [3], `O=C1C[C@@H](c2ccc(O)cc2)Oc2cc(O)cc(O)c21` [Naringenin] came in with an inhibition at 60 min, 10 µM of 9.1 ± 1.8%.

The record behind these values is PMC6100415, “Hepatic Metabolism of Sakuranetin and Its Modulating Effects on Cytochrome P450s and UDP-Glucuronosyltransferases” (Molecules : A Journal of Synthetic Chemistry and Natural …, 2018).
